# Like-named read-outs stand apart in the source and are kept apart here.
# Assays:
# T. gondii DHFR (tgDHFR) = T. gondii DHFR (tgDHFR) (Toxoplasma gondii, UniProt Q07422)
# hDHFR = hDHFR (Homo sapiens (Human), UniProt P00374); assay: DHFR inhibition assay (diaphorase/resazurin coupled, fluorescence of resorufin), human DHFR; type: biochemical; settings: Table 11
# Sequence of hDHFR (P00374 whole entry): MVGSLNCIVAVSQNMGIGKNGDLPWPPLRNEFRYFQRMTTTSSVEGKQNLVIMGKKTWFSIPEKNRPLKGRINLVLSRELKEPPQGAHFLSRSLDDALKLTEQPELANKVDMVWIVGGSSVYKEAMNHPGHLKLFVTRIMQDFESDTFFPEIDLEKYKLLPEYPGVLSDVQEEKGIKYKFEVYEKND
Compound,Average DHFR selectivity (h/tg) (T. gondii DHFR (tgDHFR); hDHFR IC50/tgDHFR IC50),also measured
"Nc1ncc(N2CCN(c3ccc(Cl)c(Cl)c3)CC2)c(N)n1 [Compound 1, 5-(4-(3,4-dichlorophenyl)piperazin-1-yl)pyrimidine-2,4-diamine]",5.5,–
"Nc1ncc(N2CCN(c3cccc(C(F)(F)F)c3)CC2)c(N)n1 [Compound 3, 5-(4-(3-(trifluoromethyl)phenyl)piperazin-1-yl)pyrimidine-2,4-diamine]",–,tgDHFR pIC50-DHFR primary assay (T. gondii DHFR (tgDHFR)): 7.21; hDHFR pIC50-DHFR primary assay (hDHFR): 6.27
"Nc1ncc(N2CCN(c3ccc(Cl)cc3)CC2)c(N)n1 [Compound 6, 5-(4-(4-chlorophenyl)piperazin-1-yl)pyrimidine-2,4-diamine]",–,tgDHFR pIC50-DHFR primary assay (T. gondii DHFR (tgDHFR)): 7.34; hDHFR pIC50-DHFR primary assay (hDHFR): 5.96
"Cc1cccc(N2CCN(c3cnc(N)nc3N)CC2)c1 [Compound 7, 5-(4-(m-tolyl)piperazin-1-yl)pyrimidine-2,4-diamine]",–,tgDHFR pIC50-DHFR primary assay (T. gondii DHFR (tgDHFR)): 7.12; hDHFR pIC50-DHFR primary assay (hDHFR): 5.22
"Nc1ncc(N2CCN(c3cccc(Br)c3)CC2)c(N)n1 [Compound 11, 5-(4-(3-bromophenyl)piperazin-1-yl)pyrimidine-2,4-diamine]",37.15,–
"Nc1ncc(N2CCC(c3ccccc3)CC2)c(N)n1 [Compound 15, 5-(4-phenylpiperidin-1-yl)pyrimidine-2,4-diamine]",25.26,–
"Nc1ncc(N2CCN(c3cccc(N4CCOCC4)c3)CC2)c(N)n1 [Compound 25, 5-(4-(3-morpholinophenyl)piperazin-1-yl)pyrimidine-2,4-diamine]",105.15,–
"CC1CN(c2cnc(N)nc2N)CCN1c1cccc(-c2ccccc2)c1 (centres unmarked) [Compound 26, 5-(4-([1,1′-biphenyl]-3-yl)-3-methylpiperazin-1-yl)pyrimidine-2,4-diamine]",14.96,–
"CC1CN(c2cccc(-c3ccccc3)c2)CCN1c1cnc(N)nc1N (centres unmarked) [Compound 27, 5-(4-([1,1′-biphenyl]-3-yl)-2-methylpiperazin-1-yl)pyrimidine-2,4-diamine]",218.78,–
"CCc1nc(N)nc(N)c1N1CCN(c2ccccc2)CC1 [Compound 28, 6-ethyl-5-(4-phenylpiperazin-1-yl)pyrimidine-2,4-diamine]",235.78,–
"CCc1nc(N)nc(N)c1N1CCN(c2cccc(C)c2)CC1 [Compound 31, 6-ethyl-5-(4-(m-tolyl)piperazin-1-yl)pyrimidine-2,4-diamine]",119.54,–
"CCc1nc(N)nc(N)c1N1CCN(c2cccc(OC)c2)CC1 [Compound 33, 6-ethyl-5-(4-(3-methoxyphenyl)piperazin-1-yl)pyrimidine-2,4-diamine]",–,Average DHFR selectivity (h/tg) (T. gondii DHFR (tgDHFR)): 120.23
"CCc1nc(N)nc(N)c1N1CCN(c2ccccn2)CC1 [Compound 34, 6-ethyl-5-(4-(pyridin-2-yl)piperazin-1-yl)pyrimidine-2,4-diamine]",158.49,–
"CCc1nc(N)nc(N)c1N1CCN(c2ccncc2)CC1 [Compound 36, 6-ethyl-5-(4-(pyridin-4-yl)piperazin-1-yl)pyrimidine-2,4-diamine]",110.92,–
"CCc1nc(N)nc(N)c1N1CCN(c2ccc(C)cc2)CC1 [Compound 39, 6-ethyl-5-(4-(p-tolyl)piperazin-1-yl)pyrimidine-2,4-diamine]",144.58,–
"CCc1nc(N)nc(N)c1N1CCN(c2ccc(F)cn2)CC1 [Compound 44, 6-ethyl-5-(4-(5-fluoropyridin-2-yl)piperazin-1-yl)pyrimidine-2,4-diamine]",71.23,–

Compound,Average DHFR selectivity (h/tg) (T. gondii DHFR (tgDHFR); hDHFR IC50/tgDHFR IC50),also measured
"CCc1nc(N)nc(N)c1N1CCN(c2ccc(C)cn2)CC1 [Compound 45, 6-ethyl-5-(4-(5-methylpyridin-2-yl)piperazin-1-yl)pyrimidine-2,4-diamine]",136.15,–
"Cc1nc(N)nc(N)c1N1CCN(c2ccccc2)CC1 [Compound 47, 6-methyl-5-(4-phenylpiperazin-1-yl)pyrimidine-2,4-diamine]",84.63,–
"CCCc1nc(N)nc(N)c1N1CCC(c2ccccc2)CC1 [Compound 51, 5-(4-phenylpiperidin-1-yl)-6-propylpyrimidine-2,4-diamine]",241.03,–
"CCCc1nc(N)nc(N)c1N1CCN(c2ccc(F)cc2)CC1 [Compound 52, 5-(4-(4-fluorophenyl)piperazin-1-yl)-6-propylpyrimidine-2,4-diamine]",303.92,–
"CCCc1nc(N)nc(N)c1N1CCN(c2ccccn2)CC1 [Compound 56, 6-propyl-5-(4-(pyridin-2-yl)piperazin-1-yl)pyrimidine-2,4-diamine]",269.78,–
"CCCc1nc(N)nc(N)c1N1CCN(c2ncc(C)cn2)CC1 [Compound 59, 5-(4-(5-methylpyrimidin-2-yl)piperazin-1-yl)-6-propylpyrimidine-2,4-diamine]",118.81,–
"CCCc1nc(N)nc(N)c1N1CCN(c2ccc(OC)cn2)CC1 [Compound 60, 5-(4-(5-methoxypyridin-2-yl)piperazin-1-yl)-6-propylpyrimidine-2,4-diamine]",149.75,–
"Nc1ncc(N2CCN(c3cccc(-c4cccc(F)c4)c3)CC2)c(N)n1 [Compound 64, 5-(4-(3′-fluoro-[1,1′-biphenyl]-3-yl)piperazin-1-yl)pyrimidine-2,4-diamine]",93.86,–
"Nc1ncc(N2CCN(c3cccc(C4CC4)c3)CC2)c(N)n1 [Compound 66, 5-(4-(3-cyclopropylphenyl)piperazin-1-yl)pyrimidine-2,4-diamine]",–,tgDHFR pIC50-DHFR primary assay (T. gondii DHFR (tgDHFR)): 7.54; hDHFR pIC50-DHFR primary assay (hDHFR): 5.79
"N#Cc1cccc(-c2cccc(N3CCN(c4cnc(N)nc4N)CC3)c2)c1 [Compound 67, 3′-(4-(2,4-diaminopyrimidin-5-yl)piperazin-1-yl)-[1,1′-biphenyl]-3-carbonitrile]",77.18,–
"Nc1ncc(N2CCN(c3cccc(-c4ccnnc4)c3)CC2)c(N)n1 [Compound 73, 5-(4-(3-(pyridazin-4-yl)phenyl)piperazin-1-yl)pyrimidine-2,4-diamine]",–,tgDHFR pIC50-DHFR primary assay (T. gondii DHFR (tgDHFR)): 8.22; hDHFR pIC50-DHFR primary assay (hDHFR): 5.96
"Nc1ncc(N2CCN(c3cccc(-c4cncnc4)c3)CC2)c(N)n1 [Compound 74, 5-(4-(3-(pyrimidin-5-yl)phenyl)piperazin-1-yl)pyrimidine-2,4-diamine]",–,tgDHFR pIC50-DHFR primary assay (T. gondii DHFR (tgDHFR)): 8.32; hDHFR pIC50-DHFR primary assay (hDHFR): 5.84
"COc1ncccc1-c1cccc(N2CCN(c3cnc(N)nc3N)CC2)c1 [Compound 80, 5-(4-(3-(2-methoxypyridin-3-yl)phenyl)piperazin-1-yl)pyrimidine-2,4-diamine]",165.32,–
"CN(C)c1ncc(-c2cccc(N3CCN(c4cnc(N)nc4N)CC3)c2)cn1 [Compound 96, 5-(4-(3-(2-(dimethylamino)pyrimidin-5-yl)phenyl)piperazin-1-yl)pyrimidine-2,4-diamine]",115.48,–
"CNc1ncc(-c2cccc(N3CCN(c4cnc(N)nc4N)CC3)c2)cn1 [Compound 97, 5-(4-(3-(2-(methylamino)pyrimidin-5-yl)phenyl)piperazin-1-yl)pyrimidine-2,4-diamine]",131.33,–
Nc1nc(N)c(N2CCN(c3ccccc3)CC2)c(CC2CC2)n1 [Compound 106],218.96,–

# From US11530198B2, “Compositions and methods for treating infections” (priority 2016, dated 2022)
